Laboratory results as given in ChEMBL document CHEMBL1201862, “PubChem BioAssay data set” (2004).
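Protocol summary: plate cells (96-well), add compound at 5 concentrations, incubate 48 h, interpolate endpoints linearly. GI50 = concentration required for 50% inhibition of growth.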 Activity calls are given as the source filed them. Rule as the data show it: active = GI50 up to about 1.1 µM and inactive = higher.

Assays:
Experiment in all cases: NCI tumour cell line growth inhibition, 48 h
A549 = system: A549
HCC 2998 = system: HCC 2998
HCT-15 = system: HCT-15
HOP-92 = system: HOP-92
IGROV-1 = system: IGROV-1
KM12 = system: KM12
MOLT-4 = system: MOLT-4
NCI-H23 = system: NCI-H23
OVCAR-3 = system: OVCAR-3
OVCAR-5 = system: OVCAR-5
SF-268 = system: SF-268
SF-295 = system: SF-295
SNB-19 = system: SNB-19
SNB-75 = system: SNB-75
SW-620 = system: SW-620
U-251 = system: U-251

Compound | GI50 (A549) | GI50 (HCC 2998) | GI50 (HCT-15) [µM] | GI50 (HOP-92) | GI50 (IGROV-1) | GI50 (KM12) | GI50 (MOLT-4) | GI50 (NCI-H23) | GI50 (OVCAR-3) | GI50 (OVCAR-5) | GI50 (SF-268) | GI50 (SF-295) | GI50 (SNB-19) | GI50 (SNB-75) | GI50 (SW-620) | GI50 (U-251)
O=C1C=C(N2CCCC2)C=C(N2CCCC2)C1 | > 100 µM (inactive) | > 100 µM (inactive) | > 100 | > 100 µM (inactive) | > 100 µM (inactive) | > 100 µM (inactive) | > 100 µM (inactive) | > 100 µM (inactive) | 75.5 µM (inactive) | > 100 µM (inactive) | > 100 µM (inactive) | > 100 µM (inactive) | > 100 µM (inactive) | 85.1 µM (inactive) | > 100 µM (inactive) | > 100 µM (inactive)
COc1ccc(CC(=O)NCCc2ccc(OC)c(OC)c2)cc1Br | > 100 µM (inactive) | > 100 µM (inactive) |  | > 100 µM (inactive) | > 100 µM (inactive) | > 100 µM (inactive) | > 100 µM (inactive) | > 100 µM (inactive) |  | 57.1 µM (inactive) | > 100 µM (inactive) | > 100 µM (inactive) | > 100 µM (inactive) |  | > 100 µM (inactive) | > 100 µM (inactive)
Nc1ccc2ncc(Nc3ccc(F)cc3)nc2c1 | > 100 µM (inactive) | > 100 µM (inactive) | > 100 |  |  | 46.3 µM (inactive) | 27.7 µM (inactive) | > 100 µM (inactive) | > 100 µM (inactive) | 84.5 µM (inactive) | > 100 µM (inactive) | > 100 µM (inactive) | > 100 µM (inactive) | > 100 µM (inactive) | > 100 µM (inactive) | > 100 µM (inactive)
C[N+](C)=c1nc(N2CCOCC2)ss1 | 47.3 µM (inactive) | > 100 µM (inactive) | > 100 | > 100 µM (inactive) | > 100 µM (inactive) | > 100 µM (inactive) | > 100 µM (inactive) | > 100 µM (inactive) |  | > 100 µM (inactive) | 76.6 µM (inactive) | 78.2 µM (inactive) | > 100 µM (inactive) |  | > 100 µM (inactive) | > 100 µM (inactive)
CC(=O)OCC1OC(n2c(=S)n(-c3ccccc3)c(=O)c3cc(Br)ccc32)C(OC(C)=O)C1OC(C)=O (stereo not given) | > 100 µM (inactive) | > 100 µM (inactive) | > 100 | > 100 µM (inactive) | > 100 µM (inactive) | > 100 µM (inactive) | 53.8 µM (inactive) | > 100 µM (inactive) | > 100 µM (inactive) | > 100 µM (inactive) | > 100 µM (inactive) | > 100 µM (inactive) | > 100 µM (inactive) | 83.9 µM (inactive) | > 100 µM (inactive) | > 100 µM (inactive)
CC1=C2CC[C@@]3(C)C(=CCC3O)C2(C)CCC1=O (stereo not given in full) | > 100 µM (inactive) | > 100 µM (inactive) | > 100 | > 100 µM (inactive) | > 100 µM (inactive) | > 100 µM (inactive) | > 100 µM (inactive) |  | > 100 µM (inactive) | > 100 µM (inactive) | > 100 µM (inactive) | > 100 µM (inactive) | > 100 µM (inactive) | 83 µM (inactive) | > 100 µM (inactive) | > 100 µM (inactive)
Cc1ccccc1C(=O)Oc1ccc(OCc2ccccc2)cc1 | 35.2 µM (inactive) | 35.9 µM (inactive) | 38.6 | > 100 µM (inactive) | > 100 µM (inactive) | > 100 µM (inactive) | 9.44 µM (inactive) | 66.8 µM (inactive) | > 100 µM (inactive) | 45.3 µM (inactive) | > 100 µM (inactive) | > 100 µM (inactive) | > 100 µM (inactive) | > 100 µM (inactive) | > 100 µM (inactive) | > 100 µM (inactive)
CN(C)CCNC(=O)C1COc2cc(-c3cc(=O)c4ccccc4o3)ccc2O1 (stereo not given) | 16.9 µM (inactive) | > 100 µM (inactive) | 27.7 | > 100 µM (inactive) | 22.2 µM (inactive) |  | 15.7 µM (inactive) | 41.1 µM (inactive) | 20.5 µM (inactive) | 29.6 µM (inactive) | 23.7 µM (inactive) | 28.4 µM (inactive) | 23.1 µM (inactive) | 17.8 µM (inactive) | 18.2 µM (inactive) | 20.1 µM (inactive)
COc1cc2ccc(/C(C)=N/OC(C)=O)cc2cc1OC | > 100 µM (inactive) |  | > 100 | 51.3 µM (inactive) | > 100 µM (inactive) | > 100 µM (inactive) | 39.7 µM (inactive) | > 100 µM (inactive) | 34.1 µM (inactive) | 63.4 µM (inactive) | 44.4 µM (inactive) | 49.9 µM (inactive) | > 100 µM (inactive) | 5.81 µM (inactive) | > 100 µM (inactive) | 86.9 µM (inactive)
Oc1ccccc1/C=N/Cc1ccco1 | > 100 µM (inactive) |  |  |  | > 100 µM (inactive) | > 100 µM (inactive) | > 100 µM (inactive) | > 100 µM (inactive) | > 100 µM (inactive) | > 100 µM (inactive) | > 100 µM (inactive) | > 100 µM (inactive) | > 100 µM (inactive) | > 100 µM (inactive) | > 100 µM (inactive) | > 100 µM (inactive)
Nc1nc(N)c(CCCCc2ccccc2)c(/C=C/c2ccc([N+](=O)[O-])cc2)n1 | 0.388 µM (active) | 2.65 µM (inactive) | 1.25 | 0.0182 µM (active) | 2.8 µM (inactive) | 3.03 µM (inactive) | 1.14 µM (inactive) | 3.86 µM (inactive) | 2.43 µM (inactive) | 3.87 µM (inactive) | 3.7 µM (inactive) | 1.42 µM (inactive) | 3.8 µM (inactive) | 2.47 µM (inactive) | 1.24 µM (inactive) | 2.13 µM (inactive)
Cc1cccc(NC2=NC(=O)C(CC(=O)Nc3cccc(C)c3C)S2)c1 (stereo not given) | > 100 µM (inactive) | > 100 µM (inactive) |  | 21.2 µM (inactive) | > 100 µM (inactive) | > 100 µM (inactive) | 24.3 µM (inactive) | > 100 µM (inactive) | > 100 µM (inactive) | > 100 µM (inactive) | > 100 µM (inactive) | > 100 µM (inactive) | > 100 µM (inactive) | > 100 µM (inactive) | > 100 µM (inactive) | > 100 µM (inactive)
Cc1ccc(S(=O)(=O)C2=c3nc4ccccc4cc3=C3C(=O)c4ccccc4C(=O)C32)cc1 (stereo not given) | > 100 µM (inactive) | > 100 µM (inactive) | > 100 | > 100 µM (inactive) | > 100 µM (inactive) | > 100 µM (inactive) | > 100 µM (inactive) | > 100 µM (inactive) | > 100 µM (inactive) | > 100 µM (inactive) | > 100 µM (inactive) |  | > 100 µM (inactive) | 43.3 µM (inactive) | > 100 µM (inactive) | > 100 µM (inactive)
Cc1nc2c(sc(=S)n2-c2ccccc2)c2nc3ccccc3n12 |  | > 100 µM (inactive) | > 100 |  | > 100 µM (inactive) | > 100 µM (inactive) | > 100 µM (inactive) | > 100 µM (inactive) | > 100 µM (inactive) | > 100 µM (inactive) | > 100 µM (inactive) | > 100 µM (inactive) | > 100 µM (inactive) | > 100 µM (inactive) |  | > 100 µM (inactive)
CCC(=O)CCC1=Nc2nnc(CCCCc3nnc4n3C(=O)C(CCC(=O)CC)=N4)n2C1=O | > 100 µM (inactive) | > 100 µM (inactive) | > 100 | > 100 µM (inactive) | > 100 µM (inactive) | > 100 µM (inactive) | > 100 µM (inactive) | > 100 µM (inactive) | > 100 µM (inactive) | > 100 µM (inactive) | > 100 µM (inactive) | > 100 µM (inactive) | > 100 µM (inactive) | > 100 µM (inactive) | > 100 µM (inactive) | 
C=CCC1C(=O)C(C(=O)OC)N2CCc3c([nH]c4ccccc34)C12 (stereo not given) | > 100 µM (inactive) | > 100 µM (inactive) | > 100 | 57.4 µM (inactive) | > 100 µM (inactive) | > 100 µM (inactive) | 64.9 µM (inactive) | > 100 µM (inactive) | > 100 µM (inactive) | > 100 µM (inactive) | > 100 µM (inactive) | > 100 µM (inactive) | > 100 µM (inactive) |  | > 100 µM (inactive) | > 100 µM (inactive)
N#CCCN(CCC#N)c1ccc(/C=C(/NC(=O)c2cc([N+](=O)[O-])ccc2Cl)C(=O)NN)cc1 | > 100 µM (inactive) | > 100 µM (inactive) | > 100 |  | > 100 µM (inactive) | > 100 µM (inactive) | 44.8 µM (inactive) | > 100 µM (inactive) | 77.8 µM (inactive) | > 100 µM (inactive) | > 100 µM (inactive) | > 100 µM (inactive) | > 100 µM (inactive) | > 100 µM (inactive) | > 100 µM (inactive) | > 100 µM (inactive)
CC#COS(=O)(=O)c1ccc(C)cc1 | 44.3 µM (inactive) | > 100 µM (inactive) | 79.8 |  | > 100 µM (inactive) | 59.2 µM (inactive) | 41.1 µM (inactive) | 65.6 µM (inactive) | 60.5 µM (inactive) | > 100 µM (inactive) | 93.3 µM (inactive) | > 100 µM (inactive) | > 100 µM (inactive) |  | 42.7 µM (inactive) | > 100 µM (inactive)
CC(=O)Oc1c(-c2ccccc2)[nH]c2cc([N+](=O)[O-])c(/C(Cl)=C/c3ccccc3)cc12 | 6.15 µM (inactive) | 4.6 µM (inactive) |  | 3.65 µM (inactive) | 9.46 µM (inactive) | 3.97 µM (inactive) | 2.84 µM (inactive) | 2.47 µM (inactive) | 7.66 µM (inactive) | 4.22 µM (inactive) | 7.96 µM (inactive) | 4.08 µM (inactive) | 8.97 µM (inactive) | 15.6 µM (inactive) | 8.89 µM (inactive) | 4.52 µM (inactive)
